Laboratory results taken from patent US12083227B2, “Solid pharmaceutical formulations for treating endometriosis, uterine fibroids, polycystic ovary syndrome or adenomyosis” (priority 2017, dated 2024).

What was measured:
women with endometriosis = assay: Phase 3 studies EM-I and EM-II with extension studies EM-III and EM-IV (pooled efficacy, pharmacodynamics, safety); format: in vivo, human; details: for Depressed Mood, depression, depressive symptoms and or tearfulness: Placebo 17 (2.3); for Mood altered, mood swings: Placebo 25 (3.4); for Completed Suicide: EM-1 and EM-2; for patients with a Z-score below the normal lower bound of −2.0: following 12 months of treatment
Text: Each placebo-controlled study assessed the reduction in endometriosis-associated pain over 6 months of treatment. More than 75 percent of women who completed Study EM-I and EM-II enrolled in the extension studies for an additional 6 month treatment period. Subjects were followed for up to 12 months post-treatment. Women in these studies also provided a daily self-assessment of their endometriosis pain using the Numeric Rating Scale (NRS), on a scale ranging from 0 (no pain) to 10 (worst pain ever). […] The effects of elagolix on menstrual bleeding were evaluated for up to 12 months using an electronic daily diary where subjects classified their flow of menstrual bleeding (if present in the last 24 hours) as spotting, light, medium, or heavy. […] The population age range was 18-49 years old. Women who completed six months of treatment and met eligibility criteria continued treatment in two blinded six-month extension studies, for a total treatment duration of up to 12 months. In the placebo-controlled and extension clinical studies, BMD was measured by DXA. Changes observed in BMD at other anatomical sites (femoral neck, total hip) were generally smaller than lumbar spine.

[1] = tested on: fatigue in women with moderate to severe endometriosis-related pain; assay: Phase III study of fatigue (PROMIS Fatigue SF-6a) in endometriosis pain; format: in vivo, human
Description: A Phase III study was conducted to assess the effects of elagolix for clinically meaningful reductions in pain and other symptoms. Data provided examined the impact of elagolix on fatigue in women with moderate to severe endometriosis-related pain. […] Fatigue was assessed using the Patient Reported Outcome Measurement Information System (PROMIS®), Fatigue Short Form (SF) 6a. Six items assessed a range of self-reported symptoms from mild, subjective feelings of tiredness to overwhelming, sustained sense of exhaustion that likely decreases one's ability to execute daily activities and function normally. The domain was divided into the experience of fatigue (frequency, duration and intensity) and impact of fatigue on physical, mental and social activities. All items assessed fatigue over the previous seven days. Responses to each question was filed on a 5-item Likert scale: 1—“Not at all”; 2—“A little bit”; 3—“Somewhat”; 4—“Quite a bit”; and 5—“Very much.” The questionnaire was administered at baseline and months 1, 3, and 6. Lower scores indicated less fatigue. Post-hoc, Fatigue SF-6a raw scores were converted to T-scores. The T-score rescales […] the raw score into a standardized score such that the general population has a mean of 50 and a standard deviation (SD) of 10. Analysis: […] ANCOVA controlled for treatment as main effect. Baseline Fatigue SF-6a T-score included as a covariate.

tumors in rat = assay: 2-year carcinogenicity study in rats; format: in vivo
Text: The rat tumors were identified as being species-specific and of negligible relevance to humans. This conclusion is based on a follow-on thyroid and hepatic effects-related investigative study performed to document the possibility that thyroid and liver tumors may be specific to rat and occurred via induction of hepatic drug metabolizing enzymes at the high dose.

tumors in mouse = assay: 2-year carcinogenicity study in mice; format: in vivo; details: any dose
[2] = drug interaction studies: elagolix in the presence of co-administered drug; format: in vivo, human; details: for AUC Ratio (co-administration vs. elagolix alone) / Cmax Ratio (co-administration vs. elagolix alone): elagolix 150 mg single dose
Description: Drug interaction studies were performed with elagolix and other drugs that are likely to be co-administered and with drugs commonly used as probes for pharmacokinetic interactions.

[3] = pharmacokinetic properties of elagolix in healthy subjects; format: in vivo, human; details: minor pathways include CYP2D6, CYP2C8 and UGTs
[4] = Ketoconazole 400 mg once daily, N 11
[5] = Rifampin 600 mg single dose, N 12

For COc1cccc(-c2c(C)n(Cc3c(F)cccc3C(F)(F)F)c(=O)n(C[C@H](NCCCC(=O)O)c3ccccc3)c2=O)c1F [elagolix, 4-((R)-2-[5-(2-fluoro-3-methoxy-phenyl)-3-(2-fluoro-6-trifluoromethyl-benzyl)-4-methyl-2,6-dioxo-3,6-dihydro-2H-pyrimidin-1-yl]-1-phenyl-ethylamino)-butyric acid], the Suicidal ideation (women with endometriosis; 150 mg Once Daily (N = 475)) was 1 (0.2) N (%), the “Depressed Mood, depression, depressive symptoms and or tearfulness” value (women with endometriosis; 150 mg Once Daily (N = 475)) was 13 (2.7) N (%) and the “Mood altered, mood swings” value (women with endometriosis; 150 mg Once Daily (N = 475)) was 25 (5.7) N (%). The “Numeric Rating Scale (NRS) scores of endometriosis pain” value (women with endometriosis; 150 mg QD and 200 mg BID vs placebo at Month 3 and Month 6, p<0.001) was “significant reduction”, the “percentage of days per month of the opioid or naproxen rescue medication use” value (women with endometriosis; 200 mg BID compared to placebo) was “significant reduction” and the Suicidal ideation (women with endometriosis; 200 mg Twice Daily (N = 477)) was 1 (0.2) N (%). For the same molecule, the “Depressed Mood, depression, depressive symptoms and or tearfulness” value (women with endometriosis; 200 mg Twice Daily (N = 477)) was 29 (6.1) N (%), the “Mood altered, mood swings” value (women with endometriosis; 200 mg Twice Daily (N = 477)) was 25 (5.2) N (%) and the “Completed Suicide” value (women with endometriosis; 150 mg Once Daily (N = 475)) was 1 (0.2) N (%). The “Completed Suicide” value (women with endometriosis; 200 mg Twice Daily (N = 477)) was 0 N (%), the “resumption of menses after stopping, % of women” value (“resumption … % of women” below) (women with endometriosis; after 6 months of 150 mg once daily, within 1 month) was 59% and the “resumption … % of women” value (women with endometriosis; after 6 months of 150 mg once daily, within 2 months) was 87%. For the same molecule, the “resumption … % of women” value (women with endometriosis; after 6 months of 150 mg once daily, within 6 months) was 95%, the “resumption … % of women” value (women with endometriosis; after 6 months of 200 mg twice daily, within 1 month) was 60% and the “resumption … % of women” value (women with endometriosis; after 6 months of 200 mg twice daily, within 2 months) was 88%. For the same molecule, the “resumption … % of women” value (women with endometriosis; after 6 months of 200 mg twice daily, within 6 months) was 97%, the “resumption … % of women” value (women with endometriosis; after 12 months of 150 mg once daily, within 1 month) was 77% and the “resumption … % of women” value (women with endometriosis; after 12 months of 150 mg once daily, within 2 months) was 95%. The “resumption … % of women” value (women with endometriosis; after 12 months of 150 mg once daily, within 6 months) was 98%, the “resumption … % of women” value (women with endometriosis; after 12 months of 200 mg twice daily, within 1 month) was 55% and the “resumption … % of women” value (women with endometriosis; after 12 months of 200 mg twice daily, within 2 months) was 91%. The “resumption … % of women” value (women with endometriosis; after 12 months of 200 mg twice daily, within 6 months) was 96%, the “recovery of BMD at lumbar spine, total hip and femoral neck” value (women with endometriosis; both treatment groups, post-treatment months 6 and 12) was “progressive recovery of BMD” and the “patients with a Z-score below the normal lower bound of −2.0” value (women with endometriosis; 150 mg daily dose) was “no patient”. For the same molecule, the “patients with a Z-score below the normal lower bound of −2.0” value (women with endometriosis; 200 mg BID) was “less than 1%”, the “percentage of days in which rescue opioid medication was taken” value (women with endometriosis; pooled analysis of two phase 3 trials, 150 QD and 200 BID vs placebo) was “significant reduction” and the “mean percent daily pill counts (rescue opioid)” value (women with endometriosis; pooled analysis, 200 mg BID vs placebo) was “significant reduction”. The “reduction in fatigue (PROMIS Fatigue SF-6a T-Score)” value ([1]; 200 mg, as early as Month 1) was “statistically significant reduction”, the “PROMIS Fatigue SF-6a T-Score relative to placebo” value ([1]; both doses (150 mg QD, 200 mg BID) at Months 3 and 6) was “Statistically significant reductions” and the “carcinogenicity: tumors” value (tumors in rat; 2-year, high dose, considered species-specific) was “increase in thyroid (male and female) and liver (males only) tumors”. For the same molecule, the “margin of safety at the high dose” value (tumors in rat; both, in vivo, 2 years) was 13 fold, the “carcinogenicity: tumors” value (tumors in mouse) was “no increase in tumors” and the “AUC Ratio (co-administration vs. elagolix alone)” value (from here on “AUC Ratio”) [2, 4] was 2.20. The “Cmax Ratio (co-administration vs. elagolix alone)” value (“Cmax Ratio” below) [2, 4] was 1.77, the “AUC Ratio” value ([2]; Rifampin 600 mg once daily) was 1.65 and the “Cmax Ratio” value ([2]; Rifampin 600 mg once daily) was 2.00. For the same molecule, the “AUC Ratio” value [2, 5] was 5.58, the “Cmax Ratio” value [2, 5] was 4.37 and the “direction of the change in AUC of elagolix” value ([2]; co-administered with rifampin) was “↑ elagolix”. For the same molecule, the Metabolism [3] was “CYP3A (major) Minor”.
